The source of these data is paper PMC10183829, “Shuffled ATG8 interacting motifs form an ancestral bridge between UFMylation and autophagy” (The EMBO Journal, 2023).

For orientation: Kd means the concentration at which binding is half-saturated. A higher Kd goes with lower affinity.

In one test the target is T1, AtUFM1 (Arabidopsis thaliana, UniProt Q9CA23).
T1 construct: made in house; host or cells: E. coli Rosetta2 (DE3) pLysS
The test can be described thus: Fluorescence anisotropy binding of TAMRA-labeled AtC53 IDR-derived peptides to AtUFM1. Here is the method:
(§1) For fluorescence anisotropy measurements, all peptides were in‐house synthetized and HPLC purified attached to 5(6)‐Carboxytetramethylrhodamine (TAMRA) to its N‐terminal. Binding affinities of ATG8A or AtUFM1 to TAMRA‐labeled peptides were measured by the change in fluorescence anisotropy in an FS5 Spectrofluorometer (Edinburgh Instruments) with excitation at 550 nm (slit width 5 nm) and emission at 580 nm (slit width 5 nm). […] Binding curves were fitted using Prism Software (GraphPad).
(In general: Polarisation of emitted light reports the rotation of a fluorescent probe.)

Another test concerns the target T2, ATG8A (Arabidopsis thaliana, UniProt Q8LEM4).
T2 construct: made in house; host or cells: E. coli Rosetta2 (DE3) pLysS
The test can be described thus: Fluorescence anisotropy binding of TAMRA-labeled AtC53 IDR-derived peptides to ATG8A. Here is the method: as §1

A further test relates to HsUFM1. Briefly: Native mass spectrometry (nMS) complex formation with HsUFM1. The class given is binding, Homo sapiens. As to conditions: HsUFM1 5 μM, peptide 25 μM. Here is the method:
Proteins were buffer exchanged into ammonium acetate using BioRad Micro Bio‐Spin 6 Columns. Native mass spectrometry experiments were carried out on a Synapt G2Si instrument (Waters, Manchester, UK) with a nanoelectrospray ionization source (nESI). Mass calibration was performed by a separate infusion of NaI cluster ions. Solutions were ionized from a thin‐walled borosilicate glass capillary (i.d. 0.78 mm, o.d. 1.0 mm, Sutter Instrument Co., Novato, CA, USA) pulled in‐house to nESI tip with a Flaming/Brown micropipette puller (Sutter Instrument Co., Novato, CA, USA). A potential of 0.8 kV was applied to the solution via a thin platinum wire (diameter 0.125 mm, Goodfellow, Huntingdon, UK). The following instrument parameters were used: capillary voltage 0.8 kV, sample cone voltage 40 V, source offset 60 V, source temperature 40°C, trap collision energy 4.0 V, and trap gas 3 ml/min. Data were processed using Masslynx V4.2 and OriginPro 2021.

The test system of test [1] is GST-GABARAP / mCh-HsC53 interaction. Briefly: On-bead competition of the GABARAP-HsC53 interaction. The class given is binding, human. The note with it: 1 μM HsC53; cAIM peptide 0-100 μM; 4 replicates. Here is the method: (§2) Glutathione‐Sepharose 4B bead slurry (Cytiva, average diameter 90 μm) was washed and diluted 10 times in HEPES buffer (25 mM HEPES pH 7.5, 150 mM NaCl, 1 mM DTT). The beads were then incubated for 30 min at 4°C (16 rpm horizontal rotation) with GST‐tagged bait proteins (2 μM of GST, GST‐FIP200 CD, GST‐ATG8A, GST‐GABARAP, GST‐AtUFM1, and GST‐HsUFM1). The beads were washed five times in 10 times the bead volume of HEPES buffer. The buffer was removed, and the beads were resuspended 1:20 in HEPES buffer. 10 μl of diluted beads was mixed with 20 μl of mCherry‐tagged binding partner at a concentration of 1.5 μM (0.5 μl bead slurry and 1 μM binding partner final concentrations) with or without competitor, as stated in the relative experiment. […]
(§3) From images acquired from a Zeiss LSM700 confocal microscope, the quantification of fluorescence was performed in ImageJ (Schindelin et al, [2012]) by drawing a line across each bead and taking the maximum gray value along the line. The maximum gray value for any given pixel represents the fluorescence intensity.
(§4) For images acquired from a Zeiss LSM800 confocal microscope, we used a custom Fiji Macro. […] In the end, the mean fluorescent intensities were exported out and used for quantification.
(§5) For each method, the fluorescence intensity was normalized against the mean of the control condition.

The test system of test [2] is GST-HsUFM1 / mCh-HsC53 interaction. The test can be described thus: On-bead competition of the HsUFM1-HsC53 interaction. As to conditions: 1 μM HsC53; cAIM peptide 0-100 μM; UBA5 LIR peptide or GABARAP 100 μM. In kind it is binding, Homo sapiens. Here is the method:
as §2, §3, §4, §5

Test [3] relates to GST-ATG8A / mCh-AtC53 interaction. Briefly: On-bead competition of the ATG8A-AtC53 interaction. In kind it is binding, Arabidopsis thaliana. As to conditions: 1 μM AtC53; cAIM peptide 0-100 μM; 2 independent replicates containing 2 technical replicates. As to the method:
as §2, §3, §4, §5

Test [4] deals with GST-AtUFM1 / mCh-AtC53 interaction. The test can be described thus: On-bead competition of the AtUFM1-AtC53 interaction. The class given is binding, Arabidopsis thaliana. As to conditions: 1 μM AtC53; cAIM peptide 0-100 μM; 2 independent replicates containing 2 technical replicates. As to the method:
as §2, §3, §4, §5

Test [5] concerns GST-GABARAP / MBP-C53 interaction. The test can be described thus: In vitro GST pulldown competition of the GABARAP-C53 interaction. The class given is binding, human. As to conditions: cAIM peptide 200 μM; immunoblot read-out. Here is the method: (§6) For pulldown experiments, 5 μl of glutathione magnetic agarose beads (Pierce Glutathione Magnetic Agarose Beads, Thermo Scientific) was equilibrated by washing them two times with wash buffer (100 mM Sodium Phosphate pH 7.2, 300 mM NaCl, 1 mM DTT, 0.01% (v/v) IGEPAL). Normalized E. coli clarified lysates or purified proteins were mixed, according to the experiment, added to the washed beads, and incubated on an end‐over‐end rotator for 1 h at 4°C. Beads were washed five times with 1 ml wash buffer. Bound proteins were eluted by adding 50 μl Laemmli buffer. Samples were analyzed by western blotting or Coomassie staining.
Background: A western blot detects proteins with antibodies after separation by electrophoresis.

Test [6] concerns GST-HsUFM1 / MBP-HsC53 interaction. The test can be described thus: In vitro GST pulldown competition of the HsUFM1-HsC53 interaction. As to conditions: cAIM peptide 200 μM; immunoblot read-out. The class given is binding, Homo sapiens. Here is the method: as §6

Entries after “also recorded” stand apart in the source; their conditions may differ. No end group written: not given here.

T2 sequence (Q8LEM4 whole entry): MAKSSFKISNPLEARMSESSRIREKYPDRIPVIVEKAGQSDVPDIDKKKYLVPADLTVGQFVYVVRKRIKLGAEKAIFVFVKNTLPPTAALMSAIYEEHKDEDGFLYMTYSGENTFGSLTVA
T1 sequence (Q9CA23 whole entry): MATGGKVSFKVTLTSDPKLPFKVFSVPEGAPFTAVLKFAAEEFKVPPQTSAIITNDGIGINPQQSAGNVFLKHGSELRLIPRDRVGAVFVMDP

Regarding “AADSIDADITVET [sAIM mut, sAIM mutant peptide where the tryptophan was mutated to alanine]”, on AtUFM1 (50 nM TAMRA-labeled peptide, up to 320 μM AtUFM1), the “Behaviour in fluorescence anisotropy titration with UFM1 (in words)” value was “did not show any change”. Moreover, on ATG8A (50 nM TAMRA-labeled peptide, up to 320 μM ATG8A), the “Behaviour in fluorescence anisotropy titration with ATG8 (in words)” value is reported as “did not show any change”.

On AtUFM1, AADSIDWDITVETPEIDWDVSMVEEV [sAIM1,2] registered a Kd of 148 µM.

On to AADSWDDIITVET [cAIM mut], for which the affinity on ATG8A, expressed as Kd, was 94.3 µM.

On ATG8A, DVSEISWDVSVET [sAIM3] had a Kd of 176 µM.

With EPLDFDWEIVLEEEM [cAIM peptide], the “Complex formation with HsUFM1 by nMS (in words)” value with HsUFM1 is listed as “did not appreciably interact; also recorded: negligible amount of 1:1 complex”. In test [1], the “Competition of the HsC53-GABARAP interaction (in words)” value is reported as “outcompeted”. Also, in test [2], the “Competition of the HsC53-HsUFM1 interaction (in words)” value is reported as “could not outcompete”. Also, in test [3], the “Competition of the AtC53-ATG8A interaction (in words)” value is recorded as “outcompeted”. The “Competition of the AtC53-AtUFM1 interaction (in words)” value in [4] is on record as “could not outcompete”. The “Competition of the GABARAP-C53 interaction in pulldown (in words)” value in [5] is recorded as “outcompeted”. Moreover, in [6], the “Competition of the HsUFM1-HsC53 interaction in pulldown (in words)” value was “cannot outcompete”.

Take GPLHDDNEWNISVVDD [UBA5 LIR peptide]: the “Complex formation with HsUFM1 by nMS (in words)” value in the test with HsUFM1 is reported as “forms a 1:1 complex”. Moreover, the “Competition of the HsC53-HsUFM1 interaction (in words)” value in test [2] is reported as “able to disrupt”.
